Measured values taken from patent US20100021918A1, “METHOD FOR ASSAYING ACTION OF ANTITUMOR AGENT USING SPLICING DEFECTS AS INDEX” (Eisai R&D Management Co., Ltd., priority 2007, published 2010).

Tested on: human colon carcinoma cell strain WiDr
Experiment: Microarray analysis (Human Exon 1.0 ST Array) of intron expression, Table 1
Assay type: cell-based
Details: six hours
Procedure: Using RNA purified from human colon carcinoma cell strain WiDr treated with 14 nM of (8E,12E,14E)-7-((4-cycloheptylpiperazin-1-yl)carbonyl)oxy-3,6,16,21-tetrahydroxy-6,10,12,16,20-pentamethyl-18,19-epoxytricosa-8,12,14-trien-11-olide (also referred to as “[…]”) for six hours, microarray analysis (Human Exon 1.0 ST Array: Affymetrix) was carried out. Not only does this array comprehensively cover the exons for all genes, but it is also designed to have probes for regions estimated as potential exons by a computer prediction program, which enables detection of the expression of the exons and introns of all genes in theory.
WiDr cells were first suspended in RPMI1640 medium (containing 10% FBS, penicillin, and streptomycin) and seeded in a 10 cm dish (2×10^6 cells/dish). After an overnight culture in an incubator with 5% carbon dioxide gas at 37° C., the medium was changed with medium containing 14 nM of (8E,12E,14E)-7-((4-cycloheptylpiperazin-1-yl)carbonyl)oxy-3,6,16,21-tetrahydroxy-6,10,12,16,20-pentamethyl-18,19-epoxytricosa-8,12,14-trien-11-olide or containing vehicle alone. After cultured for additional six hours, TRI reagent (SIGMA) were added to the cells and the cells were harvested. RNA was purified in accordance with the protocol of TRI reagent, followed by further purification with RNeasy (QIAGEN). Absorbance at 260 nm was measured to quantify an amount of RNA. This experiment was repeated three times and RNA samples (n=3) were prepared.
Ribosomal RNA was removed from 1 μg of each total RNA of control cells (n=3) and cells with the treatment (n=3) by using RiboMinus Human/Mouse Transcriptome Isolation Kit (Invitrogen). Single stranded cDNA synthesis, double stranded cDNA synthesis, cRNA synthesis, second single stranded cDNA synthesis, cDNA fragmentation, and cDNA labeling in order were carried out for the total RNA from which ribosomal RNA was removed, by using GeneChip Whole Transcript Sense Target Labeling and Control Reagents (Affymetrix) to make a cDNA probe. The cDNA probe was used for hybridization with Human Exon 1.0 ST Array (Affymetrix). The array was washed and stained, and luminescence intensity was measured by a scanner.
The expression level of the probe set and the gene was quantified by using Expression Console Ver. 1.0 (Affymetrix) with Summarization Method and Normalization Method being set to “Median polish as used in RMA” and “None”, respectively. The expression level of the probe was normalized with that of the gene. Welch's t-test was conducted for the treated group and the control group to determine a p value, which was converted into a q value by controlling False Discovery Ratio to pick out a significant probe set.
Probe sets showing that the q value was less than 1%; the normalized change in the level expression of the probe set in the group with the treatment was more than 10 times; the expression level of the probe set and the gene in the group with the treatment was more than 100; and probe set annotation was “extended, full, free”, were picked out and further arranged by gene. A gene was, when more than one probe sets therefor were found, determined as a candidate gene with increased expression level of the intron regions (Table 1). In Table 1, for the gene evaluated, gene name (Gene Name), abbreviated name (Gene Symbol), accession number (Accession), alias name (Synonym), transcription number in Human Exon 1.0 ST Array (Human Exon 1.0 ST Array), chromosome number (Chromosome), type of strand (Strand), start region (Start), stop region (Stop), and change in expression level (Fold Change) were respectively shown.

CCC(O)C(C)C1OC1CC(C)(O)/C=C/C=C(\C)C1OC(=O)CC(O)CCC(C)(O)C(OC(=O)N2CCN(C3CCCCCC3)CC2)/C=C/C1C (centres unmarked) [E7107, (8E,12E,14E)-7-((4-cycloheptylpiperazin-1-yl)carbonyl)oxy-3,6,16,21-tetrahydroxy-6,10,12,16,20-pentamethyl-18,19-epoxytricosa-8,12,14-trien-11-olide]
Fold Change (change in expression level, intron probe sets) ADRM1 (gene ADRM1, 14 nM): 13.51
Fold Change (change in expression level, intron probe sets) AK2 (gene AK2, 14 nM): 10.05
Fold Change (change in expression level, intron probe sets) ARFIP2 (gene ARFIP2, 14 nM): 12.04
Fold Change (change in expression level, intron probe sets) ARHGAP12 (gene ARHGAP12, 14 nM): 11.60
Fold Change (change in expression level, intron probe sets) ATP1B1 (gene ATP1B1, 14 nM): 12.11
Fold Change (change in expression level, intron probe sets) BAT2D1 (gene BAT2D1, 14 nM): 11.26
Fold Change (change in expression level, intron probe sets) BPTF (gene BPTF, 14 nM): 17.61
Fold Change (change in expression level, intron probe sets) BXDC2 (gene BXDC2, 14 nM): 25.94
Fold Change (change in expression level, intron probe sets) C6orf166 (gene C6orf166, 14 nM): 19.23
Fold Change (change in expression level, intron probe sets) C9orf86 // KIAA1984 (gene C9orf86 // KIAA1984, 14 nM): 13.66
Fold Change (change in expression level, intron probe sets) C10orf18 (gene C10orf18, 14 nM): 19.86
Fold Change (change in expression level, intron probe sets) C16orf80 (gene C16orf80, 14 nM): 16.25
Fold Change (change in expression level, intron probe sets) CABLES1 (gene CABLES1, 14 nM): 16.94
Fold Change (change in expression level, intron probe sets) CCND1 (gene CCND1, 14 nM): 12.66
Fold Change (change in expression level, intron probe sets) CCNL2 (gene CCNL2, 14 nM): 12.84
Fold Change (change in expression level, intron probe sets) CDC20 (gene CDC20, 14 nM): 18.22
Fold Change (change in expression level, intron probe sets) CENPL (gene CENPL, 14 nM): 14.13
Fold Change (change in expression level, intron probe sets) DCBLD2 (gene DCBLD2, 14 nM): 19.52
Fold Change (change in expression level, intron probe sets) DDEF2 (gene DDEF2, 14 nM): 22.92
Fold Change (change in expression level, intron probe sets) DKC1 (gene DKC1, 14 nM): 11.53
Fold Change (change in expression level, intron probe sets) DNAJB1 (gene DNAJB1, 14 nM): 11.95
Fold Change (change in expression level, intron probe sets) EIF2C2 (gene EIF2C2, 14 nM): 21.33
Fold Change (change in expression level, intron probe sets) EIF4A1 (gene EIF4A1, 14 nM): 16.15
Fold Change (change in expression level, intron probe sets) EIF5 (gene EIF5, 14 nM): 12.30
Fold Change (change in expression level, intron probe sets) FOXK2 (gene FOXK2, 14 nM): 18.79
Fold Change (change in expression level, intron probe sets) GNB2L1 (gene GNB2L1, 14 nM): 11.87
Fold Change (change in expression level, intron probe sets) GNL3 (gene GNL3, 14 nM): 14.08
Fold Change (change in expression level, intron probe sets) GTPBP4 (gene GTPBP4, 14 nM): 12.24
Fold Change (change in expression level, intron probe sets) HMGCS1 (gene HMGCS1, 14 nM): 13.21
Fold Change (change in expression level, intron probe sets) HSPA9 (gene HSPA9, 14 nM): 13.33
Fold Change (change in expression level, intron probe sets) HSPH1 (gene HSPH1, 14 nM): 15.12
Fold Change (change in expression level, intron probe sets) IDI1 (gene IDI1, 14 nM): 19.25
Fold Change (change in expression level, intron probe sets) ILF2 (gene ILF2, 14 nM): 13.79
Fold Change (change in expression level, intron probe sets) ITGB1 (gene ITGB1, 14 nM): 21.48
Fold Change (change in expression level, intron probe sets) JARID1C (gene JARID1C, 14 nM): 14.09
Fold Change (change in expression level, intron probe sets) KIAA0174 (gene KIAA0174, 14 nM): 19.65
Fold Change (change in expression level, intron probe sets) KIAA1429 (gene KIAA1429, 14 nM): 14.19
Fold Change (change in expression level, intron probe sets) KLHL18 (gene KLHL18, 14 nM): 15.00
Fold Change (change in expression level, intron probe sets) KRT18 (gene KRT18, 14 nM): 13.41
Fold Change (change in expression level, intron probe sets) LMO7 (gene LMO7, 14 nM): 14.34
Fold Change (change in expression level, intron probe sets) LTV1 (gene LTV1, 14 nM): 18.37
Fold Change (change in expression level, intron probe sets) MAT2A (gene MAT2A, 14 nM): 12.29
Fold Change (change in expression level, intron probe sets) MBNL2 (gene MBNL2, 14 nM): 28.86
Fold Change (change in expression level, intron probe sets) MYO1E (gene MYO1E, 14 nM): 14.49
Fold Change (change in expression level, intron probe sets) NET1 (gene NET1, 14 nM): 13.02
Fold Change (change in expression level, intron probe sets) NUPL1 (gene NUPL1, 14 nM): 12.63
Fold Change (change in expression level, intron probe sets) PUM2 (gene PUM2, 14 nM): 19.01
Fold Change (change in expression level, intron probe sets) RAF1 (gene RAF1, 14 nM): 16.41
Fold Change (change in expression level, intron probe sets) RIOK3 (gene RIOK3, 14 nM): 13.67
Fold Change (change in expression level, intron probe sets) RNF40 (gene RNF40, 14 nM): 15.84
Fold Change (change in expression level, intron probe sets) RSPRY1 (gene RSPRY1, 14 nM): 14.32
Fold Change (change in expression level, intron probe sets) SART3 (gene SART3, 14 nM): 15.13
Fold Change (change in expression level, intron probe sets) SLC2A1 (gene SLC2A1, 14 nM): 16.44
Fold Change (change in expression level, intron probe sets) SMAD3 (gene SMAD3, 14 nM): 12.88
Fold Change (change in expression level, intron probe sets) SMURF2 (gene SMURF2, 14 nM): 16.60
Fold Change (change in expression level, intron probe sets) SNX19 (gene SNX19, 14 nM): 17.12
Fold Change (change in expression level, intron probe sets) SPRED2 (gene SPRED2, 14 nM): 31.56
Fold Change (change in expression level, intron probe sets) ST3GAL1 (gene ST3GAL1, 14 nM): 12.77
Fold Change (change in expression level, intron probe sets) SUPV3L1 (gene SUPV3L1, 14 nM): 18.81
Fold Change (change in expression level, intron probe sets) TARDBP (gene TARDBP, 14 nM): 18.13
Fold Change (change in expression level, intron probe sets) TES (gene TES, 14 nM): 15.95
Fold Change (change in expression level, intron probe sets) TINF2 (gene TINF2, 14 nM): 11.05
Fold Change (change in expression level, intron probe sets) TJP1 (gene TJP1, 14 nM): 11.55
Fold Change (change in expression level, intron probe sets) UBE3A (gene UBE3A, 14 nM): 19.35
Fold Change (change in expression level, intron probe sets) USP47 (gene USP47, 14 nM): 12.32
Fold Change (change in expression level, intron probe sets) VIL2 (gene VIL2, 14 nM): 17.50
Fold Change (change in expression level, intron probe sets) WAC (gene WAC, 14 nM): 18.53
Fold Change (change in expression level, intron probe sets) WDR45L (gene WDR45L, 14 nM): 12.59
Fold Change (change in expression level, intron probe sets) WDR73 (gene WDR73, 14 nM): 30.61
Fold Change (change in expression level, intron probe sets) WDR74 (gene WDR74, 14 nM): 12.70
Fold Change (change in expression level, intron probe sets) WEE1 (gene WEE1, 14 nM): 12.26
Fold Change (change in expression level, intron probe sets) YTHDC1 (gene YTHDC1, 14 nM): 10.66
Fold Change (change in expression level, intron probe sets) ZNF384 (gene ZNF384, 14 nM): 12.13
Fold Change (change in expression level, intron probe sets) ZNF410 (gene ZNF410, 14 nM): 12.01
